# Experimental data: patent US20180027807A1, “Vermin Control Compositions” (priority 2013, published 2018)
# Read-outs that look alike come from different tables or passages of the source.
# Legend:
# [1] = Accelerated stability study of cholecalciferol in DMSO/ethanol formulations; type: physicochemical; settings: across all formulations, 25° C.±2° C./60% RH±5%
# Procedure: The stability of cholecalciferol in the chosen penetration enhancer is an important consideration when analysing the physical properties of the formulation. An unstable formulation which causes cholecalciferol to degrade would result in delivery of sub-lethal doses. […] Conversely, cholecalciferol solutions in surfactants and oils are said to be stable over long periods at 40° C. In order to assess the stability of cholecalciferol when combined with the chosen penetration enhancers an accelerated stability study was performed. In total, 6 formulations with varying types and concentration of penetration enhancers were stored in an accelerated stability cabinet at 25° C.±2° C./60% RH±5%. Each formulation contained 10% (w/v) cholecalciferol. Each formulation was made up a day before the intended start date of the stability study and left in a water bath/shaker overnight at 25° C. to allow adequate time for the cholecalciferol to dissolve. Amber bottles were used to prevent photo-degradation and parafilm was used to seal round the screw lid to prevent oxidative degradation from the air. At each sampling point the lid was removed and 200 μl taken; the sample was serially diluted 8 times (256-fold) before analysis with HPLC.
# All formulations contain 10% (w/v) cholecalciferol.
# [2] = cited from earlier work
# [3] = crystalline form, 7 days, cited from earlier work
structure (smiles),measurement,setting,value
C=C1CC[C@H](O)C/C1=C/C=C1\CCC[C@]2(C)[C@@H]([C@H](C)CCCC(C)C)CC[C@@H]12 [cholecalciferol],degradation of cholecalciferol,[1]; during the first 10 days,16.83%
same,degradation of cholecalciferol (drop in potency),"[1]; over 50 days, 10% (w/v) in DMSO/ethanol ratios, amber bottles",27.11%
same,Solubility (class),"[2]; cholecalciferol in ethanol, classification taken from the British Pharmacopeia",freely soluble (a solubility between 1-10 ml/g is classed as freely soluble)
same,solubility in water,"[2]; cholecalciferol in water, stated",practically insoluble
same,decrease in potency,[3]; 40° C./45% RH,35%
same,decrease in potency,[3]; 40° C./85% RH,85%
